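Tested at 5 concentrations; 48 h exposure; 96-well plates; endpoints linearly interpolated, else capped at highest concentration. At the GI50, growth is halved.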 The source made the active and inactive calls. Rule as the data show it: active = GI50 up to about 1.1 µM and inactive = higher.
Tests used:
Test in all cases: NCI tumour cell line growth inhibition, 48 h
[1] = test system: SNB-75
[2] = test system: MDA-MB-231
[3] = test system: UACC-62
[4] = test system: EKVX
[5] = test system: M14
[6] = test system: DU-145
[7] = test system: U-251
[8] = test system: UO-31
[9] = test system: IGROV-1
[10] = test system: Malme-3M
[11] = test system: HOP-92
[12] = test system: HCT-15
[13] = test system: ACHN
[14] = test system: A549
[15] = test system: NCI-H522
[16] = test system: SK-MEL-2
[17] = test system: TK-10
[18] = test system: KM12
[19] = test system: CCRF-CEM
[20] = test system: SF-295
[21] = test system: CAKI-1
[22] = test system: MDA-MB-435
[23] = test system: K562
[24] = test system: T47D
[25] = test system: NCI/ADR-RES
[26] = test system: SK-OV-3
[27] = test system: NCI-H23
[28] = test system: HT-29
[29] = test system: HL-60
[30] = test system: MCF7
[31] = test system: 786-0
[32] = test system: SF-268
[33] = test system: LOX IMVI
[34] = test system: SR
[35] = test system: NCI-H226
[36] = test system: OVCAR-5
[37] = test system: MDA-N
[38] = test system: Hs-578T
[39] = test system: BT-549
[40] = test system: HOP-62
[41] = test system: COLO 205
[42] = test system: MOLT-4
[43] = test system: SK-MEL-5
[44] = test system: SNB-19
[45] = test system: RPMI-8226
[46] = test system: PC-3
[47] = test system: HCT-116
[48] = test system: OVCAR-4
[49] = test system: OVCAR-8
[50] = test system: A498
[51] = test system: SN12C
[52] = test system: UACC-257
[53] = test system: RXF 393
[54] = test system: SK-MEL-28
[55] = test system: OVCAR-3
[56] = test system: SW-620
[57] = test system: NCI-H460
[58] = test system: SF-539

`Cc1ccc(SCN2CCCCC2)cc1.O=C(Cl)c1ccc([N+](=O)[O-])cc1` was tested, and the GI50 [1] was 9.42 µM (inactive), the GI50 [2] was 13.2 µM (inactive) and the GI50 [3] was 13.7 µM (inactive). For the same compound, the GI50 [4] was 11.8 µM (inactive), the GI50 [5] was 17.8 µM (inactive) and the GI50 [6] was 13.7 µM (inactive). The GI50 [7] was 11.2 µM (inactive), the GI50 [8] was 15.2 µM (inactive) and the GI50 [9] was 3.3 µM (inactive). The GI50 [10] was 13.1 µM (inactive), the GI50 [11] was 9.18 µM (inactive) and the GI50 [12] was 9.77 µM. The GI50 [13] was 12.6 µM (inactive), the GI50 [14] was 21.2 µM (inactive) and the GI50 [15] was 1.92 µM (inactive). For the same compound, the GI50 [16] was 14.7 µM (inactive), the GI50 [17] was 19.4 µM (inactive) and the GI50 [18] was 10.8 µM (inactive). The GI50 [19] was 2.03 µM (inactive), the GI50 [20] was 16 µM (inactive) and the GI50 [21] was 8.87 µM (inactive). For the same compound, the GI50 [22] was 10.1 µM (inactive), the GI50 [23] was 13.8 µM (inactive) and the GI50 [24] was 12.2 µM (inactive). The GI50 [25] was 14 µM (inactive), the GI50 [26] was 12.9 µM (inactive) and the GI50 [27] was 8.22 µM (inactive). The GI50 [28] was 13.2 µM (inactive), the GI50 [29] was 1.67 µM (inactive) and the GI50 [30] was 6.55 µM (inactive). The GI50 [31] was 15.1 µM (inactive), the GI50 [32] was 5.98 µM (inactive) and the GI50 [33] was 2.97 µM (inactive). For the same compound, the GI50 [34] was 4.24 µM (inactive), the GI50 [35] was 16.6 µM (inactive) and the GI50 [36] was 10.7 µM (inactive). The GI50 [37] was 6.25 µM (inactive), the GI50 [38] was 10.4 µM (inactive) and the GI50 [39] was 1.9 µM (inactive). The GI50 [40] was 16.2 µM (inactive), the GI50 [41] was 4.86 µM (inactive) and the GI50 [42] was 3.37 µM (inactive). The GI50 [43] was 2.78 µM (inactive), the GI50 [44] was 19.2 µM (inactive) and the GI50 [45] was 5.78 µM (inactive). For the same compound, the GI50 [46] was 12.2 µM (inactive), the GI50 [47] was 10.9 µM (inactive) and the GI50 [48] was 12.4 µM (inactive). The GI50 [49] was 25.9 µM (inactive), the GI50 [50] was 2.76 µM (inactive) and the GI50 [51] was 4.31 µM (inactive). The GI50 [52] was 14.6 µM (inactive), the GI50 [53] was 6.15 µM (inactive) and the GI50 [54] was 13.4 µM (inactive). For the same compound, the GI50 [55] was 12.9 µM (inactive) and the GI50 [56] was 18.5 µM (inactive).

`CC(C)(C)c1ccc(O)c(CN(Cc2cc(C(C)(C)C)ccc2O)c2ccccc2)c1` was tested, and the GI50 [1] was 18.7 µM (inactive), the GI50 [2] was 16.9 µM (inactive) and the GI50 [3] was 14.7 µM (inactive). The GI50 [4] was 16.5 µM (inactive), the GI50 [5] was 14.4 µM (inactive) and the GI50 [6] was 19.1 µM (inactive). For the same compound, the GI50 [7] was 15.1 µM (inactive), the GI50 [57] was 16.5 µM (inactive) and the GI50 [8] was 14.4 µM (inactive). The GI50 [9] was 21.1 µM (inactive), the GI50 [10] was 15.8 µM (inactive) and the GI50 [11] was 16.2 µM (inactive). The GI50 [12] was 18.3 µM, the GI50 [13] was 16.6 µM (inactive) and the GI50 [14] was 17.5 µM (inactive). The GI50 [15] was 13.3 µM (inactive), the GI50 [16] was 17.6 µM (inactive) and the GI50 [17] was 17.1 µM (inactive). The GI50 [18] was 22.2 µM (inactive), the GI50 [19] was 32.4 µM (inactive) and the GI50 [20] was 17.5 µM (inactive). For the same compound, the GI50 [21] was 31.8 µM (inactive), the GI50 [22] was 16.2 µM (inactive) and the GI50 [23] was 11.6 µM (inactive). For the same compound, the GI50 [24] was 15.8 µM (inactive), the GI50 [25] was 19.1 µM (inactive) and the GI50 [26] was 29.4 µM (inactive). The GI50 [27] was 21.1 µM (inactive), the GI50 [28] was 18.3 µM (inactive) and the GI50 [30] was 18.8 µM (inactive). For the same compound, the GI50 [31] was 16.6 µM (inactive), the GI50 [32] was 17.6 µM (inactive) and the GI50 [33] was 13.7 µM (inactive). The GI50 [34] was 16 µM (inactive), the GI50 [36] was 16.1 µM (inactive) and the GI50 [37] was 16.6 µM (inactive). For the same compound, the GI50 [38] was 18.6 µM (inactive), the GI50 [39] was 21 µM (inactive) and the GI50 [40] was 20.8 µM (inactive). The GI50 [41] was 17.1 µM (inactive), the GI50 [42] was 15.6 µM (inactive) and the GI50 [43] was 15.1 µM (inactive). For the same compound, the GI50 [44] was 16.4 µM (inactive), the GI50 [45] was 16.7 µM (inactive) and the GI50 [46] was 17.9 µM (inactive). For the same compound, the GI50 [47] was 19.4 µM (inactive), the GI50 [48] was 19.2 µM (inactive) and the GI50 [49] was 19.1 µM (inactive). The GI50 [50] was 14.8 µM (inactive), the GI50 [51] was 17.7 µM (inactive) and the GI50 [52] was 2.48 µM (inactive). The GI50 [53] was 13.6 µM (inactive), the GI50 [54] was 17.5 µM (inactive) and the GI50 [55] was 15.6 µM (inactive). The GI50 [58] was 17.6 µM (inactive) and the GI50 [56] was 18.5 µM (inactive).
